The text below walks through data of PubChem BioAssay (NCI).

Among the test systems are SF-268 CNS; NCI-H460 lung; OVCAR-8 ovarian; HL-60(TB) leukemia; CAKI-1 renal; EKVX NSCLC; OVCAR-5 ovarian; SK-MEL-28 melanoma.
Holding throughout (assay): NCI tumour cell line growth inhibition, 48 h

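1) Cells in 96-well plates. 2) Compound, 48 h, 5 concentrations. 3) Linear interpolation between surrounding doses. 4) Unreached endpoint = highest concentration. The concentration for full growth arrest is given as TGI.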

In the case of `CCOC(=O)NN1C(=O)C(=P(c2ccccc2)(c2ccccc2)c2ccccc2)C(C(=O)OC)=C1C`, the TGI with SF-268 CNS, with NCI-H460 lung, in the assay with OVCAR-8 ovarian, in the assay on HL-60(TB) leukemia, with CAKI-1 renal and in the assay on EKVX NSCLC was above 100 µM in each case. This compound also displayed a TGI in the assay with OVCAR-5 ovarian above 100 µM.

Take `COc1ccccc1/C=C(\NC(=O)c1ccccc1)c1nc2ccccc2[nH]1`: the TGI with SF-268 CNS, with NCI-H460 lung, with OVCAR-8 ovarian, in the assay on SK-MEL-28 melanoma, in the assay with CAKI-1 renal and in the assay with EKVX NSCLC was above 100 µM each time. Also, the TGI in the assay with OVCAR-5 ovarian was above 100 µM.

Consider `O=C(NCCCN1CCN(CCCNC(=O)Nc2cc(Cl)ccc2Cl)CC1)Nc1cc(Cl)ccc1Cl`, for which the TGI in the assay on SF-268 CNS, in the assay with NCI-H460 lung, in the assay on OVCAR-8 ovarian, in the assay on SK-MEL-28 melanoma, in the assay with HL-60(TB) leukemia and with CAKI-1 renal was above 100 µM throughout. Moreover, the TGI with OVCAR-5 ovarian is above 100 µM.

Regarding `Cc1cc(O)c2c(c1)OC1(C)CCC3C(C)(C)CCCC34COC2C14` (stereo unspecified), the TGI was 30.7 µM with SF-268 CNS; 30.6 µM with NCI-H460 lung; 30.9 µM in the assay on OVCAR-8 ovarian; 63.7 µM in the assay with HL-60(TB) leukemia; 32.9 µM with CAKI-1 renal; 24.8 µM with EKVX NSCLC. Moreover, in the assay on OVCAR-5 ovarian, the TGI is 29.5 µM.

For `COC(=O)CCC(NC(=S)N/N=C(\C)c1cccs1)C(=O)OC` (stereo unspecified), the TGI in the assay with SF-268 CNS, with NCI-H460 lung, in the assay on OVCAR-8 ovarian, in the assay with SK-MEL-28 melanoma, in the assay on EKVX NSCLC and in the assay with OVCAR-5 ovarian was above 100 µM throughout.

With `CCNC(=O)COc1ccc(Cl)c(C)c1`, the TGI in the assay on SF-268 CNS, in the assay on NCI-H460 lung, in the assay with SK-MEL-28 melanoma, with HL-60(TB) leukemia, with CAKI-1 renal and in the assay on OVCAR-5 ovarian was above 100 µM each time.

Turning to `C/C(=N/NC(N)=S)C(CN1CCOCC1)C(C1=C(O)c2ccccc2OC1)c1ccccc1` (stereo unspecified), the TGI in the assay on SF-268 CNS was above 100 µM; in the assay on NCI-H460 lung, above 100 µM; with OVCAR-8 ovarian, above 100 µM; in the assay on HL-60(TB) leukemia, 50 µM; in the assay on CAKI-1 renal, above 100 µM; with EKVX NSCLC, above 100 µM. In the assay with OVCAR-5 ovarian, this compound showed a TGI above 100 µM.

For `NCCOCCOCC(=O)O`, the TGI in the assay on SF-268 CNS, in the assay with OVCAR-8 ovarian, in the assay with SK-MEL-28 melanoma, with CAKI-1 renal, in the assay on EKVX NSCLC and in the assay with OVCAR-5 ovarian was above 100 µM throughout.

`Cn1cnnc1Sc1c([N+](=O)[O-])nc(-c2ccc([N+](=O)[O-])cc2)n1C`: the TGI with SF-268 CNS was 32.5 µM; in the assay with NCI-H460 lung, above 100 µM; with OVCAR-8 ovarian it was 33 µM; with SK-MEL-28 melanoma, 29.6 µM; in the assay with CAKI-1 renal it was above 100 µM; with EKVX NSCLC it was 76.1 µM. In the assay on OVCAR-5 ovarian, this compound returned a TGI of 52 µM.

For `COc1c2c(c(O)c3c4c(c(C)cc13)C1OC3(C(OC)OC5CC(C)(O)C(OC6CC(C)(O)C(O)C(C)O6)C(C)O5)OC1C(OC)(O4)C31CO1)C(=O)C(O)CC2OC1CC(C)(O)C(OC(C)=O)C(C)O1` (stereo unspecified), the TGI is 0.0167 µM in the assay with SF-268 CNS; 0.15 µM in the assay with NCI-H460 lung; below 0.01 µM in the assay on HL-60(TB) leukemia; 2.71 µM in the assay on CAKI-1 renal; 0.0336 µM in the assay with EKVX NSCLC; below 0.01 µM with OVCAR-5 ovarian.

As for `C[C@]12CC[C@H](OC(=O)Nc3ccccc3)CC1=CC[C@@H]1C2CC[C@]2(C)/C(=N/OC(=O)Nc3ccccc3)CCC12` (stereo partly specified), the TGI with SF-268 CNS is above 100 µM; in the assay with NCI-H460 lung it was above 100 µM; in the assay with OVCAR-8 ovarian it was above 100 µM; in the assay with HL-60(TB) leukemia it was above 100 µM; with CAKI-1 renal, 4.96 µM; with EKVX NSCLC, above 100 µM. Also, the TGI in the assay on OVCAR-5 ovarian was above 100 µM.

Turning to `C[C@@H]1CC2(C[C@@H](C)C3[C@@H](CC4(C)CCCC5C6=CC(O)(CC[C@]34C)OC6=CC(=O)OC5(C)C)O2)OC1=O` (stereo partly specified), the TGI in the assay on SK-MEL-28 melanoma, in the assay on HL-60(TB) leukemia and in the assay on OVCAR-5 ovarian was above 100 µM each time.

For the compound `CN(C)C(=S)/N=c1\ssc(=Nc2ccccc2)n1-c1ccccc1`, the TGI is 98.2 µM in the assay on SF-268 CNS; 68.7 µM with OVCAR-8 ovarian; above 100 µM in the assay on SK-MEL-28 melanoma; above 100 µM with HL-60(TB) leukemia; 75.6 µM in the assay with CAKI-1 renal; 94.4 µM in the assay with EKVX NSCLC. Besides, the TGI in the assay with OVCAR-5 ovarian was above 100 µM.

With `CNC(=O)NCCCCC(NC(C)=O)C(=O)NCc1ccccc1` (stereo unspecified), the TGI in the assay with SF-268 CNS, in the assay with NCI-H460 lung, in the assay with OVCAR-8 ovarian, in the assay with SK-MEL-28 melanoma, in the assay with CAKI-1 renal and in the assay with EKVX NSCLC was above 100 µM each time. Moreover, the TGI in the assay with OVCAR-5 ovarian is above 100 µM.

Consider `Nc1ccc(C(=O)N/C(=C\c2ccc3c(c2)OCO3)c2nc3ccccc3s2)cc1`, for which the TGI with SF-268 CNS came out at 24.2 µM; in the assay on OVCAR-8 ovarian, 28.9 µM; with SK-MEL-28 melanoma, 25.9 µM; in the assay with CAKI-1 renal it was 29.7 µM; with EKVX NSCLC, 25.9 µM; in the assay with OVCAR-5 ovarian, 36.5 µM.
